Source: ChEMBL document CHEMBL5665443, “Enzyme Inhibitor Single Concentration assay results for EUbOPEN Chemogenomics Library” (2024)
Where a SMILES comes first, the peptide text is derived from it. [ ]: non-standard residue; d: D form. Arg(Me) = CNC(=N)NCCC[C@H](N)C(=O)O; d3Pal = N[C@H](Cc1cccnc1)C(=O)O; azaGly = NNC(=O)O

Tests used:
[1] = target: Uracil-DNA glycosylase (Homo sapiens) (UniProt P13051); conditions: Hit No;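 further: UNG excision on a quenched double-stranded DNA oligo probe, with APE1 added for strand incision and turnover, read as fluorescence at 594 nm as strands separate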
[2] = target: G/T mismatch-specific thymine DNA glycosylase (Homo sapiens) (UniProt Q13569); conditions: Hit No;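 further: human TDG cleavage of quenched duplex DNA oligonucleotides coupled to APE1, strand release read as fluorescence at 594 nm, inhibition of TDG activity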
[3] = target: T1, Single-strand selective monofunctional uracil DNA glycosylase (Homo sapiens) (UniProt Q53HV7); conditions: Hit No;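 further: enzymatic SMUG1 assay coupled with APE1, reading fluorescence at 594 nm released when a quenched double-stranded DNA oligonucleotide substrate is cleaved and separated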
T1 sequence (whole entry): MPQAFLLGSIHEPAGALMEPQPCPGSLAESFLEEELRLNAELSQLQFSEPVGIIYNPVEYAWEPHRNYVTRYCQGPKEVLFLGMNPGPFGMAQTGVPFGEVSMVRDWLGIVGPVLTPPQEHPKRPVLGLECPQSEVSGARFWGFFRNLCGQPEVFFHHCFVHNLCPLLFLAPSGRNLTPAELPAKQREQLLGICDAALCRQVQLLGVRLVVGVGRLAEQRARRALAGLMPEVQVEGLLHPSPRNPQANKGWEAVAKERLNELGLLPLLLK

[4] = target: T2, Endonuclease III-like protein 1 (Homo sapiens) (UniProt P78549); conditions: Hit No;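 further: enzyme assay tracking NTHL1 cutting and release of a quenched double-stranded DNA oligo substrate, read as fluorescence at 594 nm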
T2 sequence (whole entry): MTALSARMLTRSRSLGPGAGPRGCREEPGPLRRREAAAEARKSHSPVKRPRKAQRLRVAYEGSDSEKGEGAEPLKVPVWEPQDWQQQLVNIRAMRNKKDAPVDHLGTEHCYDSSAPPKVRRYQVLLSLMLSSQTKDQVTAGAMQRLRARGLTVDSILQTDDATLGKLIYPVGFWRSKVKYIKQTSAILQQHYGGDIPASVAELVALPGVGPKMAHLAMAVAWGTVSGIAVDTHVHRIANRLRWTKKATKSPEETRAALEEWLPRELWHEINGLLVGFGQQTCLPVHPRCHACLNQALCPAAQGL

[5] = target: Endonuclease 8-like 1 (Homo sapiens) (UniProt Q96FI4); conditions: Hit No;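 further: fluorescence at 594 nm from quenched duplex DNA oligonucleotides released by NEIL1 cleavage and strand separation, reported as reduction of this enzyme activity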
[6] = target: Methyl-CpG-binding domain protein 4 (Homo sapiens) (UniProt O95243); conditions: Hit No;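 further: MBD4 activity read as fluorescence at 594 nm from cleavage and release of a quenched duplex DNA oligonucleotide, with APE1 coupled to incise the strand and raise turnover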
[7] = target: T3, Endonuclease 8-like 2 (Homo sapiens) (UniProt Q969S2);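 further: fluorescence at 594 nm reports NEIL2 cutting and release of a quenched double-stranded DNA oligo substrate, reduced signal read as inhibition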
T3 sequence (whole entry): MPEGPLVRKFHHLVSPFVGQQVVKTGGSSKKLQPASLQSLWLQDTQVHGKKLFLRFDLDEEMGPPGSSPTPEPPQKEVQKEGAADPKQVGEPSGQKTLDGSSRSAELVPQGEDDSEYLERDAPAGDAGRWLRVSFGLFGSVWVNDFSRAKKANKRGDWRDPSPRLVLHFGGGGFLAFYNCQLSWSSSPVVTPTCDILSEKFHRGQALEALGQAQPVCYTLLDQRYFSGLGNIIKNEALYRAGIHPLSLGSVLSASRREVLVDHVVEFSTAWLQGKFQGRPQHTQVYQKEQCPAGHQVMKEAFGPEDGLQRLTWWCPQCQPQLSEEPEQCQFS

[8] = target: N-glycosylase/DNA lyase (Homo sapiens) (UniProt O15527); conditions: Hit No;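 further: OGG1 cleavage of a quenched duplex DNA oligonucleotide, coupled to APE1 for strand incision, read as fluorescence at 594 nm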
[9] = target: T4, Adenine DNA glycosylase (Homo sapiens) (UniProt Q9UIF7); conditions: Hit No;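 further: human MUTYH activity read as 594 nm fluorescence from cleavage and release of a quenched DNA duplex, coupled with APE1 for strand incision, lower signal meaning inhibition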
T4 sequence (whole entry): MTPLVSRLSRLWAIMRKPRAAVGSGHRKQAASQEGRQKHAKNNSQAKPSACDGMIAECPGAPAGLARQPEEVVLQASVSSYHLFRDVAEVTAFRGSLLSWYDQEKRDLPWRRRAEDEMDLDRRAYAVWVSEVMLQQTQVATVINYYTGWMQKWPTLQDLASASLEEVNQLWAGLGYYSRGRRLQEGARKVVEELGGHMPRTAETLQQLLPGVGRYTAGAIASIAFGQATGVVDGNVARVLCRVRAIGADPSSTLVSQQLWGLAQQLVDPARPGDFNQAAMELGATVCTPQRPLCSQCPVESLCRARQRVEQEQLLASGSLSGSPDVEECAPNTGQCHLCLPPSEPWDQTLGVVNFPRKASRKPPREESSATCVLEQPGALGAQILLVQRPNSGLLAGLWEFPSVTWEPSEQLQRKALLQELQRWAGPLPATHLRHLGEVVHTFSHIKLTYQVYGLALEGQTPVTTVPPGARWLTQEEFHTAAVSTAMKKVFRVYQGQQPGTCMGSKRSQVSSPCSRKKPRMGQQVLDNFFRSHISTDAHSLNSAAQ

[10] = Compound Concentration 1.0 uM, Hit No
[11] = Compound Concentration 10.0 uM, Hit No

Endonuclease 8-like 1 (Homo sapiens), sequence (Q96FI4 whole entry, the tested form may be a part): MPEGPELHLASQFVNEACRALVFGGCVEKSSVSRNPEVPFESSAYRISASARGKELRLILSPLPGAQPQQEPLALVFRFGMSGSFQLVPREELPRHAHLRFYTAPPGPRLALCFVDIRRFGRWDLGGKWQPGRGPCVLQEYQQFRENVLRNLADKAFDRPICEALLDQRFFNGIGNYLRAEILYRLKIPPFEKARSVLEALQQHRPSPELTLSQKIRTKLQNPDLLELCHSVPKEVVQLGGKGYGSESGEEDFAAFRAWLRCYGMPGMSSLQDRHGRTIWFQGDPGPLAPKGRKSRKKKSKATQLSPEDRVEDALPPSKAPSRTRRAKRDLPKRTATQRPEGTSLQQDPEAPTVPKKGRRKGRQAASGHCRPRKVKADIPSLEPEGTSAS
Uracil-DNA glycosylase (Homo sapiens), sequence (P13051 whole entry): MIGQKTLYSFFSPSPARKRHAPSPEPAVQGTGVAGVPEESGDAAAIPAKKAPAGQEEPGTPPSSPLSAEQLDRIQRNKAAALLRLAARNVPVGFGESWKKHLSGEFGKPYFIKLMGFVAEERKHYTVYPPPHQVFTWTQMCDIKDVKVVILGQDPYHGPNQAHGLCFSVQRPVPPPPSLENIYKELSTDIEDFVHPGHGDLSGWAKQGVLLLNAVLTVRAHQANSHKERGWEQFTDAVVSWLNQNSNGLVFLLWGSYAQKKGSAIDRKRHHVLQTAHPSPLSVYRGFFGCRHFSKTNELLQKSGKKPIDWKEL
Methyl-CpG-binding domain protein 4 (Homo sapiens), sequence (O95243 whole entry, the tested form may be a part): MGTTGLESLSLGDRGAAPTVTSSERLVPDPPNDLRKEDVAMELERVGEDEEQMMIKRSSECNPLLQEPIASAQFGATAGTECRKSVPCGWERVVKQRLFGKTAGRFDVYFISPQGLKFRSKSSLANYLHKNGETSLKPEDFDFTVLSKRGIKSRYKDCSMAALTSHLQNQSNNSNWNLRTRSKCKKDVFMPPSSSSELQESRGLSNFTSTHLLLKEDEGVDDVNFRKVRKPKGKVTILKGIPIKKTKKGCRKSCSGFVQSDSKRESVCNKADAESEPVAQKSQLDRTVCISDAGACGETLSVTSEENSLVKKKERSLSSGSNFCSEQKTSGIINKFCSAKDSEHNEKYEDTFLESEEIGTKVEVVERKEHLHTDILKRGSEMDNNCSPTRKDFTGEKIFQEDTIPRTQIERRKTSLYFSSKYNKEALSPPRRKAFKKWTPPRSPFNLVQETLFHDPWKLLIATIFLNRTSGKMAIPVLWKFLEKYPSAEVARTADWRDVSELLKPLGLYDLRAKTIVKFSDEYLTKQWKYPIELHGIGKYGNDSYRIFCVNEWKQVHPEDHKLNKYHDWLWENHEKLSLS
N-glycosylase/DNA lyase (Homo sapiens), sequence (O15527 whole entry): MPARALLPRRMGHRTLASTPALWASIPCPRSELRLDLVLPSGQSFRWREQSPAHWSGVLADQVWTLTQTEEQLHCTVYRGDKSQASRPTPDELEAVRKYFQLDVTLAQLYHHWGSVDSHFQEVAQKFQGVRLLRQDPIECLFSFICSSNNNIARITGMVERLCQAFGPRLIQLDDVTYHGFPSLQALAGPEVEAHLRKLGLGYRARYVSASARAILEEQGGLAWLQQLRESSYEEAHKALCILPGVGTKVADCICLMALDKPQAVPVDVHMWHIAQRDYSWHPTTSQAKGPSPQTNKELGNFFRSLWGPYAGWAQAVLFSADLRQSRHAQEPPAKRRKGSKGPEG
G/T mismatch-specific thymine DNA glycosylase (Homo sapiens), sequence (Q13569 whole entry): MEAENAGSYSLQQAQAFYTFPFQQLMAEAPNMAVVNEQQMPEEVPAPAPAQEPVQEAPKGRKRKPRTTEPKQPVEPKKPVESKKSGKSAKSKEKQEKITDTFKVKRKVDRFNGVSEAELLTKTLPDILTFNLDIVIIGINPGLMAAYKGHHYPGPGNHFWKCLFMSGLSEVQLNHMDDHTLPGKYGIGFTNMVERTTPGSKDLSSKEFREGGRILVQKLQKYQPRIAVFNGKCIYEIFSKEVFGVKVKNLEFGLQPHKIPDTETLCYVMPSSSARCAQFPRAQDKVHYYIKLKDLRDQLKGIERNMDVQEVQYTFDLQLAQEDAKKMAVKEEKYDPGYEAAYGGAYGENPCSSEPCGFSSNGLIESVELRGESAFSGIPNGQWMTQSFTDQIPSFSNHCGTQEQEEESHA

Compound	inhibition ([1]; Compound Concentration 1.0 uM) [%]	inhibition ([1]; Compound Concentration 10.0 uM) [%]	inhibition ([2]; Compound Concentration 1.0 uM) [%]	inhibition ([2]; Compound Concentration 10.0 uM) [%]	inhibition ([3]; Compound Concentration 1.0 uM) [%]	inhibition ([3]; Compound Concentration 10.0 uM) [%]	inhibition ([4]; Compound Concentration 1.0 uM) [%]	inhibition ([4]; Compound Concentration 10.0 uM) [%]	inhibition ([5]; Compound Concentration 1.0 uM) [%]	inhibition ([5]; Compound Concentration 10.0 uM) [%]	inhibition ([6]; Compound Concentration 1.0 uM) [%]	inhibition ([6]; Compound Concentration 10.0 uM) [%]	inhibition [7, 10] [%]	inhibition ([8]; Compound Concentration 10.0 uM) [%]	inhibition ([9]; Compound Concentration 10.0 uM) [%]	inhibition ([7]; Compound Concentration 10.0 uM, Hit Yes) [%]	inhibition [7, 11] [%]	inhibition ([9]; Compound Concentration 1.0 uM) [%]	inhibition ([8]; Compound Concentration 1.0 uM) [%]
Cc1ccc(-c2cnc([C@@]3(O)CC[C@H](C(=O)O)C(C)(C)C3)s2)cc1Nc1cccc(C(F)(F)F)n1	-2.23	2.77	36.9	58.3	6.55	11.6	-6.89	-1.95	-1.05	-8.92	1.64	60.9	1.58	5.44	13.4				
COc1cc2nc(N3CCN(C(=O)COc4c(OC)cccc4C(C)C)CC3)nc(N)c2cc1OC		3.87		4.22		-5.21		17.9		10.1		-7.62		-9.97	-1.51	50.6			
CCc1ccccc1C(=O)Nc1n[nH]c2c(C)c(F)c(C3C(C#N)=C(C)N(C)C(C)=C3C#N)cc12	1.06	9.1	36.9	43.7	13.1	29.9	13.3	-1.95	0.0055	-6.65	55	44.9		11.1	2.35		5.63	6.2	
O[C@]1(C(F)(F)F)CCCC[C@H]1Nc1ccc(F)cc1	2.12		46.6		15.6		4.63		3.35		54.7		6.91					-4.37	-4.39
Cc1cccc(-c2[nH]c(CNc3ccccc3F)nc2-c2ccc3ncnn3c2)n1	-5.91		35.6		-5.72		-6.89		-2.11		12.7		6.16					6.74	4.54
CN1CCN(c2ccnc(NCCc3ccccc3)n2)CC1		6.53		50.4		8.97		-9.83		2.13		69		9.82	16.7		14.1		
C=C(C)[C@H]1CN[C@H](C(=O)O)[C@H]1CC(=O)O		-5.09		-2.38		-0.636		-1.08		-4.88		2.41		-6.14	8.87		-3.66		
CCC(=N\O)/C(C)=C/c1ccc(F)c(C)c1		3.87		41.4		22.6		-5.23		-2.41		64.7		16.2	-0.87		0.276		
O=C(NNS(=O)(=O)c1ccccc1F)c1cc(F)cc(-c2ccccn2)c1		6.14		49.9		15.4		11.9		0.316		80.8		3.57	3.72		3.34		
C[C@@]1(Cc2ccc(C#N)cc2)C(=O)N(c2cc(Cl)cc(Cl)c2)c2ncc(C(=O)NC3(c4nc(C5CCC5)no4)CC3)n21		3.21		98.8		14.7		-5.89		-6.2		57.2		13.1	-3.98		-9.93		
CC(C)(O)CNc1ncc(-c2ccnc(Nc3ccnc(Cl)c3)n2)c(CC2CC2)n1		-2.03		44.6		21.2		5.67		-7.52		-8.47		-4.97	0.0658		-9.73		
CCc1ccc(N(CC(C)C)S(=O)(=O)c2ccc(OCC3CCOCC3)c(CO)c2)cc1		5.13		98.5		18.3		-1.95		-7.41		69.4		9.77	7		-1.25		
N#Cc1cc(F)cc(-c2nc(-c3ccc(F)cn3)no2)c1		-3.92		2.89		-0.692		-9.34		-4.29		0.258		-9.37	-0.521		-9.52		
O=C(O)c1ccc(-c2coc3ncc(-c4ccccc4)cc23)cc1Cl		3.81		45.9		25.7		1.48		7.67		-2.05		13.2	30.1		1.31		
CCCCN(Cc1ccccc1)C(=O)c1ccc(S(=O)(=O)Nc2ccccc2)cc1		2.05		61.1		26.3		2.88		-9.37		-4.89		15.6	28.5		-10		
C[C@@H]1C[C@H](C)CN(c2ncc(Cl)c(Nc3ccc4c(c3)cc(OC(C)(C)C(=O)O)c(=O)n4C)n2)C1		7.75		69.6		17.6		-6.88		-5.89		73.2		19.3	18.2		8.19		
Cc1cc(OC2CCS(=O)(=O)CC2)cc(C)c1-c1cccc(COc2ccc(C(=O)O)c(F)c2)c1		6.33		100		23.6		-5.23		-1.96		67.4		31.5	8.53		-1.51		
CNC(=N)NCCC[C@H](NC(=O)[C@H](CC(C)C)NC(=O)NNC(=O)[C@H](Cc1ccccc1)NC(=O)[C@H](CO)NC(=O)[C@H](CC(N)=O)NC(=O)[C@@H](Cc1cccnc1)NC(=O)[C@H](N)Cc1ccc(O)cc1)C(=O)NCC(N)=O (H-[dY][d3Pal]NSF[azaGly]L[Arg(Me)]G-NH2)		7.1		62.4		25.5		0.685		-0.139		60.6		9.57	-0.706		-2.53		
Cc1cc(-n2nc(Cc3cc(F)cc(C(F)(F)F)c3)nc2C)ccc1C(N)=O		2.38		97.3		18.8		7.26		-6.95		59.6		-5.77	0.715		-0.234		
C[C@H](NC(=O)c1c(C(F)F)nn(C)c1Oc1cccc(C(F)(F)F)c1)c1ccc(C(=O)O)cc1		-7.93		11.8		2.15		16.6		-3.02		-2.06		-5.88	15.2		11.8		
